Laboratory results: PubChem BioAssay AID330 (DTP/NCI, 2004)
Where “and” joins values, the source holds several entries; their conditions need not be identical. Identical values can stand only once. Toxic doses and inconclusive results are not listed.

Test system: P388 leukemia ip, CD2F1 mice, survival T/C
Test: NCI In Vivo Anticancer Drug Screen. Data for tumor model P388 Leukemia (intraperitoneal) in CD2F1 (CDF1) mice
Details: endpoint: median survival time, higher = longer survival
Summary of the method: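 Mice carrying the transplanted tumor received test compound or vehicle. Survival was recorded in each group, and the value is the treated-group measurement divided by that of the vehicle-treated control group.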

[1] = dose: 100.0 mg/kg/injection, schedule: Q01DX001 (ip), vehicle: Klucel (hydroxypropylcellulose) (HPC)
[2] = dose: 200.0 mg/kg/injection, schedule: Q01DX001 (ip), vehicle: Klucel (hydroxypropylcellulose) (HPC)
[3] = dose: 400.0 mg/kg/injection, schedule: Q01DX001 (ip), vehicle: Klucel (hydroxypropylcellulose) (HPC)
[4] = dose: 50.0 mg/kg/injection, schedule: Q01DX005 (ip), vehicle: saline with Tween-80
[5] = dose: 100.0 mg/kg/injection, schedule: Q01DX005 (ip), vehicle: saline with Tween-80
[6] = dose: 200.0 mg/kg/injection, schedule: Q01DX005 (ip), vehicle: saline with Tween-80
[7] = dose: 50.0 mg/kg/injection, schedule: Q01DX009 (ip), vehicle: Klucel (hydroxypropylcellulose) (HPC)
[8] = dose: 100.0 mg/kg/injection, schedule: Q01DX009 (ip), vehicle: Klucel (hydroxypropylcellulose) (HPC)
[9] = dose: 60.0 mg/kg/injection, schedule: Q01DX005 (ip), vehicle: saline with Tween-80
[10] = dose: 120.0 mg/kg/injection, schedule: Q01DX005 (ip), vehicle: saline with Tween-80
[11] = dose: 240.0 mg/kg/injection, schedule: Q01DX005 (ip), vehicle: saline with Tween-80
[12] = dose: 25.0 mg/kg/injection, schedule: Q01DX009 (ip), vehicle: saline with Tween-80
[13] = dose: 50.0 mg/kg/injection, schedule: Q01DX009 (ip), vehicle: saline with Tween-80
[14] = dose: 100.0 mg/kg/injection, schedule: Q01DX009 (ip), vehicle: saline with Tween-80
[15] = dose: 200.0 mg/kg/injection, schedule: Q01DX009 (ip), vehicle: saline with Tween-80
[16] = dose: 100.0 mg/kg/injection, schedule: Q04DX002 (ip), vehicle: saline with Tween-80
[17] = dose: 200.0 mg/kg/injection, schedule: Q04DX002 (ip), vehicle: saline with Tween-80
[18] = dose: 400.0 mg/kg/injection, schedule: Q04DX002 (ip), vehicle: saline with Tween-80
[19] = dose: 6.25 mg/kg/injection, schedule: Q01DX009 (ip), vehicle: saline with Tween-80
[20] = dose: 12.5 mg/kg/injection, schedule: Q01DX009 (ip), vehicle: saline with Tween-80
[21] = dose: 50.0 mg/kg/injection, schedule: Q01DX005 (ip), vehicle: Klucel (hydroxypropylcellulose) (HPC)
[22] = dose: 25.0 mg/kg/injection, schedule: Q01DX009 (ip), vehicle: Klucel (hydroxypropylcellulose) (HPC)

Cc1ccccc1C(=O)N1C(=O)Cc2ccccc21
T/C [1]: 97 % of control | T/C [2]: 91 % of control | T/C [3]: 90 % of control

C/C(=N\Nc1cc(C)c2cccc(C)c2n1)c1ccccn1
T/C [4]: 105 % of control | T/C [5]: 91 % of control | T/C [6]: 91 % of control

CN(C)CCCNc1nc2ccccc2c2ccnn12
T/C (dose: 5.5 mg/kg/injection, schedule: Q01DX009 (ip), vehicle: saline): 109 % of control | T/C (dose: 11.0 mg/kg/injection, schedule: Q01DX009 (ip), vehicle: saline): 100 % of control | T/C (dose: 22.0 mg/kg/injection, schedule: Q01DX009 (ip), vehicle: saline): 100 % of control

CC1(/C=C/Cl)CC(Cl)(CBr)C(Cl)CC1Cl (stereo not drawn)
T/C (dose: 8.75 mg/kg/injection, schedule: Q01DX005 (ip), vehicle: Klucel (hydroxypropylcellulose) (HPC)): 97 % of control | T/C (dose: 17.5 mg/kg/injection, schedule: Q01DX005 (ip), vehicle: Klucel (hydroxypropylcellulose) (HPC)): 91 % of control | T/C (dose: 35.0 mg/kg/injection, schedule: Q01DX005 (ip), vehicle: Klucel (hydroxypropylcellulose) (HPC)): 97 % of control | T/C (dose: 70.0 mg/kg/injection, schedule: Q01DX005 (ip), vehicle: Klucel (hydroxypropylcellulose) (HPC)): 91 % of control

CC(=O)OC(OC(C)=O)c1ccc([N+](=O)[O-])s1
T/C [7]: 109 % of control | T/C [8]: 87 % of control

CCOCC(=O)NC1Cc2cc(OC)c(OC)cc2C1O (stereo not drawn)
T/C [9]: 100 % of control | T/C [10]: 101 % of control | T/C [11]: 100 % of control

Oc1ccc(N=Cc2ccccn2)cc1
T/C [12]: 94 % of control | T/C [13]: 105 % of control and 88 % of control | T/C [14]: 107 % of control and 88 % of control | T/C [15]: 103 % of control

O=Cc1cc(/C=N/Nc2ccc([N+](=O)[O-])cc2[N+](=O)[O-])nc2[nH]c(=O)ccc12
T/C [16]: 97 % of control | T/C [17]: 104 % of control | T/C [18]: 95 % of control

Cc1cc(N(CC(C)Br)CC(C)Br)ccc1N=Nc1ccccc1C(=O)O (stereo not drawn)
T/C [19]: 196 % of control | T/C [20]: 108 % of control | T/C (dose: 12.5 mg/kg/injection, schedule: Q01DX009 (oral), vehicle: saline with Tween-80): 115 % of control | T/C (dose: 50.0 mg/kg/injection, schedule: Q01DX009 (oral), vehicle: saline with Tween-80): 157 % of control | T/C (dose: 100.0 mg/kg/injection, schedule: Q01DX009 (oral), vehicle: saline with Tween-80): 89 % of control

N=C1N=Nc2nc(C(C(=O)c3cccc([N+](=O)[O-])c3Cl)c3nc4n(c3O)C(=N)N=N4)c(O)n21 (stereo not drawn)
T/C [9]: 106 % of control | T/C [10]: 105 % of control | T/C [11]: 106 % of control

CN1CCN(C(=S)C(O)(c2ccccc2)c2ccccc2)CC1
T/C [1]: 105 % of control | T/C [2]: 105 % of control | T/C [3]: 100 % of control

O=C(Nc1ccc(C2=NCCN2)cc1)c1cc(Cl)cc(C(=O)Nc2ccc(C3=NCCN3)cc2)c1
T/C (dose: 140.0 mg/kg/injection, schedule: Q01DX010 (ip), vehicle: saline): 95 % of control | T/C (dose: 210.0 mg/kg/injection, schedule: Q01DX010 (ip), vehicle: saline): 90 % of control | T/C (dose: 315.0 mg/kg/injection, schedule: Q01DX010 (ip), vehicle: saline): 100 % of control | T/C (dose: 473.0 mg/kg/injection, schedule: Q01DX010 (ip), vehicle: saline): 100 % of control

O=CNc1ccc2c(c1)Cc1cc(Br)ccc1-2
T/C [12]: 93 % of control | T/C [13]: 98 % of control | T/C [14]: 93 % of control | T/C [15]: 88 % of control

O=C(O)c1cc(I)cc(I)c1
T/C (dose: 37.5 mg/kg/injection, schedule: Q01DX009 (ip), vehicle: saline with Tween-80): 99 % of control | T/C (dose: 75.0 mg/kg/injection, schedule: Q01DX009 (ip), vehicle: saline with Tween-80): 104 % of control | T/C (dose: 100.0 mg/kg/injection, schedule: Q04DX003 (ip), vehicle: saline with Tween-80): 98 % of control | T/C (dose: 150.0 mg/kg/injection, schedule: Q01DX009 (ip), vehicle: saline with Tween-80): 95 % of control | T/C (dose: 200.0 mg/kg/injection, schedule: Q04DX003 (ip), vehicle: saline with Tween-80): 96 % of control | T/C (dose: 400.0 mg/kg/injection, schedule: Q04DX003 (ip), vehicle: saline with Tween-80): 96 % of control

Cc1ccc(N=Nc2c(-c3cccs3)nn(C(N)=S)c2C(F)(F)F)cc1
T/C (dose: 12.5 mg/kg/injection, schedule: Q01DX005 (ip), vehicle: Klucel (hydroxypropylcellulose) (HPC)): 103 % of control | T/C (dose: 25.0 mg/kg/injection, schedule: Q01DX005 (ip), vehicle: Klucel (hydroxypropylcellulose) (HPC)): 98 % of control | T/C [21]: 98 % of control

NCCSc1cc(O)c2c(c1N)C(=O)c1ccccc1C2=O
T/C (dose: 12.5 mg/kg/injection, schedule: Q01DX009 (ip), vehicle: Klucel (hydroxypropylcellulose) (HPC)): 106 % of control | T/C [22]: 104 % of control | T/C [7]: 106 % of control | T/C [8]: 105 % of control

CCOC(=O)C(=C=[N-])[n+]1ccc(C)cc1
T/C (dose: 6.25 mg/kg/injection, schedule: Q01DX009 (ip), vehicle: saline sonified): 90 % of control | T/C (dose: 12.5 mg/kg/injection, schedule: Q01DX009 (ip), vehicle: saline sonified): 90 % of control | T/C (dose: 25.0 mg/kg/injection, schedule: Q01DX009 (ip), vehicle: saline sonified): 90 % of control

O=C1NC(Cc2ccccc2)C(=O)NC1Cc1ccccc1 (stereo not drawn)
T/C (dose: 3.13 mg/kg/injection, schedule: Q01DX009 (ip), vehicle: saline with Tween-80): 86 % of control | T/C [19]: 100 % of control | T/C [20]: 107 % of control | T/C [22]: 101 % of control | T/C [12]: 103 % of control | T/C [7]: 104 % of control

Cc1nc(N)nc(N)c1CCCc1ccccc1
T/C (dose: 3.12 mg/kg/injection, schedule: Q01DX001 (ip), vehicle: Klucel (hydroxypropylcellulose) (HPC)): 107 % of control | T/C (dose: 6.25 mg/kg/injection, schedule: Q01DX001 (ip), vehicle: Klucel (hydroxypropylcellulose) (HPC)): 101 % of control | T/C (dose: 12.5 mg/kg/injection, schedule: Q01DX001 (ip), vehicle: Klucel (hydroxypropylcellulose) (HPC)): 105 % of control | T/C (dose: 12.5 mg/kg/injection, schedule: Q01DX001 (ip), vehicle: saline): 100 % of control

Cn1cc(Cc2c[nH]c3ccccc3c2=O)c2ccccc21
T/C [9]: 107 % of control | T/C [10]: 99 % of control | T/C [11]: 97 % of control

O=c1[nH]cnc2nc(Cl)[nH]c12
T/C [21]: 98 % of control | T/C (dose: 100.0 mg/kg/injection, schedule: Q01DX005 (ip), vehicle: Klucel (hydroxypropylcellulose) (HPC)): 98 % of control | T/C (dose: 200.0 mg/kg/injection, schedule: Q01DX005 (ip), vehicle: Klucel (hydroxypropylcellulose) (HPC)): 95 % of control

C1=Nc2ccccc2Oc2ccc3ccccc3c21
T/C [13]: 107 % of control | T/C [14]: 99 % of control | T/C [15]: 107 % of control

Oc1c(Cl)c(Cl)c2ncccc2c1Cl
T/C [4]: 102 % of control | T/C [5]: 107 % of control | T/C [6]: 110 % of control

O=C1c2ccccc2C(=O)C1(Br)c1ccc(Cl)cc1
T/C [16]: 96 % of control | T/C [17]: 101 % of control | T/C [18]: 99 % of control

COc1cc(O)c(C(C)c2ccccc2)cc1N=O (stereo not drawn)
T/C [4]: 92 % of control | T/C [5]: 87 % of control | T/C [6]: 92 % of control
